Data published in ChEMBL document CHEMBL1201862, “PubChem BioAssay data set” (2004).
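Five compound concentrations were applied to cells in 96-well plates for 48 hours; endpoints were derived by simple linear interpolation of the resulting dose-response curve. Abbreviation: GI50, concentration required for 50% inhibition of growth.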 Active and inactive are the calls of the source. Rule as the data show it: active = GI50 up to about 1.1 µM and inactive = higher.

Legend:
Experiment in all cases: DTP human tumour cell line panel, 48 h
DLD-1 = test system: DLD-1
DMS-114 = test system: DMS-114
DMS-273 = test system: DMS-273
HOP-18 = test system: HOP-18
KM-20L2 = test system: KM-20L2
LXFL 529 = test system: LXFL 529
M19-MEL = test system: M19-MEL
RXF 631 = test system: RXF 631
XF498 = test system: XF498

Row | SMILES | GI50 (DLD-1) | GI50 (DMS-114) | GI50 (DMS-273) | GI50 (HOP-18) | GI50 (KM-20L2) | GI50 (LXFL 529) | GI50 (M19-MEL) | GI50 (RXF 631) | GI50 (XF498)
1 | CC(=O)c1ccc(-c2ccc(C(C)=O)s2)s1 | > 100 µM (inactive) | 1.43 µM (inactive) | > 100 µM (inactive) | > 100 µM (inactive) | > 100 µM (inactive) | > 100 µM (inactive) | > 100 µM (inactive) | > 100 µM (inactive) | > 100 µM (inactive)
2 | O=S(=O)(N/N=C/c1ccc(Cl)cc1Cl)c1ccccc1 | > 100 µM (inactive) | 29.4 µM (inactive) | 66.7 µM (inactive) | 57.5 µM (inactive) | 85.1 µM (inactive) | 74.3 µM (inactive) | > 100 µM (inactive) | 61.1 µM (inactive) | 78.7 µM (inactive)
3 | Cc1ccc(S(=O)(=O)OC2CS[S+]([O-])CC2OS(=O)(=O)c2ccc(C)cc2)cc1 (centres undefined) | 9.27 µM (inactive) | 17.9 µM (inactive) | 18.9 µM (inactive) | 22.6 µM (inactive) | 17.7 µM (inactive) | 14.5 µM (inactive) | 16.6 µM (inactive) | 16.6 µM (inactive) | 13.6 µM (inactive)
4 | Fc1ccc(C2SCc3nc4ccccc4n32)cc1Cl (centres undefined) | 23 µM (inactive) | 19.9 µM (inactive) | > 10 µM (inactive) |  | 29.9 µM (inactive) | 18.6 µM (inactive) | 19.8 µM (inactive) | 32.9 µM (inactive) | 14 µM (inactive)
5 | CCCNCCCCC(NC(C)=O)C(=O)NCc1ccccc1 (centres undefined) | > 100 µM (inactive) | > 100 µM (inactive) | > 100 µM (inactive) |  | > 100 µM (inactive) | > 100 µM (inactive) | > 100 µM (inactive) | > 100 µM (inactive) | > 100 µM (inactive)
6 | O=[N+]([O-])c1cccc(/C=N/C23CC4CC(CC(C4)C2)C3)c1 | > 100 µM (inactive) | > 100 µM (inactive) | > 100 µM (inactive) | > 100 µM (inactive) | > 100 µM (inactive) | > 100 µM (inactive) | > 100 µM (inactive) |  | > 100 µM (inactive)
7 | CSC(C1c2ccccc2N(c2ccc(C)cc2)C2=NC(=O)N(C)C(=O)C21Cl)S(=O)(=O)c1ccc(C)cc1 (centres undefined) | 16.3 µM (inactive) | 19 µM (inactive) | 20 µM (inactive) |  | 21.7 µM (inactive) | 17.5 µM (inactive) | 23.7 µM (inactive) |  | 30.8 µM (inactive)
8 | O=C(CC1(O)C(=O)Nc2c(Cl)ccc(Cl)c21)c1ccc(Cl)cc1 (centres undefined) | 38 µM (inactive) | 24.1 µM (inactive) | 27 µM (inactive) | 44.2 µM (inactive) | 38.1 µM (inactive) | 25.2 µM (inactive) | 18.4 µM (inactive) | 23.8 µM (inactive) | 19.1 µM (inactive)
9 | O=C(O)c1c2c(cc3c(=O)c4ccccc4[nH]c13)CCCC2 |  |  | 83 µM (inactive) | > 100 µM (inactive) | > 100 µM (inactive) | > 100 µM (inactive) | > 100 µM (inactive) | > 100 µM (inactive) | > 100 µM (inactive)
10 | Cc1nc2ccccc2[s+]c1-c1cnc(NC#N)nc1C(=O)Nc1cccc(Cl)c1 | > 100 µM (inactive) | > 100 µM (inactive) | > 100 µM (inactive) | > 100 µM (inactive) | > 100 µM (inactive) | > 100 µM (inactive) | > 100 µM (inactive) |  | 
11 | COC(=O)C1=C(O)c2cc(-c3ccccc3)c(-c3ccccc3)c(C#N)c2NC(=O)C1 | 6.3 µM (inactive) | 29.6 µM (inactive) | 2.13 µM (inactive) | < 0.01 µM (active) | 13.1 µM (inactive) | 1.3 µM (inactive) | 14.5 µM (inactive) | 3.56 µM (inactive) | 49 µM (inactive)
12 | C=C(C(=C)P(=S)(C(C)C)C(C)C)P(=S)(C(C)C)C(C)C | > 100 µM (inactive) | > 100 µM (inactive) | > 100 µM (inactive) |  | > 100 µM (inactive) | > 100 µM (inactive) | > 100 µM (inactive) | > 100 µM (inactive) | > 100 µM (inactive)
13 | CS(=O)(=O)CS(=O)(=O)OCCCl | 333 µM (inactive) | 86.7 µM (inactive) | 236 µM (inactive) | 438 µM (inactive) | 565 µM (inactive) |  | 286 µM (inactive) |  | 
14 | O=C(N/C(=C\c1ccc(/C=C(\NC(=O)c2ccccc2)c2nc3ccccc3[nH]2)cc1)c1nc2ccccc2[nH]1)c1ccccc1 | > 100 µM (inactive) | > 100 µM (inactive) | 52.8 µM (inactive) | > 100 µM (inactive) | > 100 µM (inactive) | > 100 µM (inactive) | > 100 µM (inactive) |  | > 100 µM (inactive)
15 | O=C(/C=C/c1ccc(Cl)cc1)c1ccncc1 | 41 µM (inactive) | 48.1 µM (inactive) | 69.3 µM (inactive) | > 100 µM (inactive) | 35.9 µM (inactive) | 60.5 µM (inactive) | 26.9 µM (inactive) | 31.8 µM (inactive) | 
16 | N#CC(C(=O)C(=O)C(C#N)c1ccc(Br)cc1)c1ccc(Br)cc1 (centres undefined) | 14.3 µM (inactive) | 12.1 µM (inactive) | 12.1 µM (inactive) | 11.4 µM (inactive) | 12.2 µM (inactive) |  | 12.1 µM (inactive) |  | 
17 | N/N=C(\CCN1CCCC1)CC(c1ccccc1)c1c(O)c2ccccc2oc1=O (centres undefined) | > 100 µM (inactive) | > 100 µM (inactive) | > 100 µM (inactive) | > 100 µM (inactive) | > 100 µM (inactive) | > 100 µM (inactive) | > 100 µM (inactive) |  | 
18 | NC(=O)c1csc(C2C=CC(CO)O2)n1 (centres undefined) |  | > 100 µM (inactive) | > 100 µM (inactive) | > 100 µM (inactive) | > 100 µM (inactive) | > 100 µM (inactive) |  | > 100 µM (inactive) | > 100 µM (inactive)
19 | COC1CC(n2cc(F)c(N)nc2=O)OC1CO (centres undefined) | > 100 µM (inactive) | > 100 µM (inactive) | > 100 µM (inactive) | 49.4 µM (inactive) | > 100 µM (inactive) | > 100 µM (inactive) |  | > 100 µM (inactive) | > 100 µM (inactive)
20 | Nc1nc2c(c(=O)[n-]1)[n+](CCO)cn2C1OC(CO)C(O)C1O (centres undefined) | > 100 µM (inactive) | > 100 µM (inactive) | > 100 µM (inactive) | > 100 µM (inactive) | > 100 µM (inactive) | > 100 µM (inactive) | > 100 µM (inactive) | > 100 µM (inactive) | > 100 µM (inactive)
21 | C/C(CC(=O)Nc1ccccc1)=N\NC(N)=S | > 100 µM (inactive) | > 100 µM (inactive) | > 100 µM (inactive) |  | > 100 µM (inactive) | > 100 µM (inactive) | > 100 µM (inactive) |  | > 100 µM (inactive)
